{"source": "paper PMC7939445", "about": "“Exploitation of dihydroorotate dehydrogenase (DHODH) and p53 activation as therapeutic targets: A case study in polypharmacology” (The Journal of Biological Chemistry, 2021)", "key": {"[1]": {"system": "ARN8 cells", "assay": "Propidium iodide flow cytometry (cell cycle)", "format": "cell-based, human", "details": "48 h; for Effect on cell cycle distribution / cell death: 10 μM tenovins 1 and 33 or 200 nM brequinar; for Effect of uridine or OA on the compound's cell cycle effect: 10 μM, 100 μM uridine or 1 mM OA, not with DHO", "method": "ARN8 cells were seeded at 30,000 per well, respectively, in 6-well plates and incubated for 24 h. All compounds were diluted to 10× stocks in fully supplemented growth medium. Cells were incubated with the compounds for 48 h. Cell culture medium was removed and placed into Falcon tubes. Wells were washed twice with 1× PBS with the washes saved in the Falcon tubes to harvest floating dead cells. Cells remaining in the wells were trypsinized with 200 μl of 1× trypsin/EDTA (Sigma–Aldrich #T4174). Following detachment, fresh growth medium was added to each well, and the contents were removed and placed in the relevant tubes. Any remaining cells in the plate were then gathered by washing twice with 2 ml of 1× PBS with the washes saved and added to the relevant tubes. The tubes were centrifuged at 500 × g for 5 min. Cell pellets were washed twice with 1× PBS. The pellets were resuspended in 1 ml of 1× PBS and added dropwise to 3 ml of 99.9% ethanol while vortex mixing at high speed. Cells were then fixed at –20 °C for 24 h. Following fixation, cells were pelleted at 1390 × g for 5 min. The cells were washed three times with 2 ml of 1× PBS containing 3% FBS with centrifugation at 1390 × g between washes. Cells were resuspended in 0.5 ml of PBS containing 10 μg of propidium iodide (Invitrogen #P3566) and 50 μg of RNase A (Sigma–Aldrich #R4642) and incubated on ice in the dark for 10 min. Flow cytometry was performed using a BD Biosciences FACScan or FACSCalibur with 10,000 events counted within the gating region."}, "[2]": {"system": "U2OS or ARN8 cells", "assay": "Uridine uptake assay ([3H]uridine, scintillation counting)", "format": "cell-based, human", "details": "5 μM", "method": "100,000 (24-h assay) or 200,000 (15-min assay) U2OS or ARN8 cells were seeded per well in 6-well plates in 2 ml of fully supplemented culture medium as described above. 24 h postseeding, medium was removed, and cells were treated with the indicated compounds for either 15 min or 24 h in 2 ml of FBS-free medium supplemented with serum replacement 3 (Sigma–Aldrich #S2640). At the end of the treatment, an extra well of each treatment was harvested in 100 μl of 1× LDS (62.5 mM Tris-HCl, pH 6.8, 10% glycerol, 1% LDS) for quantification of protein levels to determine the level of cell death after 24 h for normalization with protein concentration determined by the Bio-Rad DC protein assay (Bio-Rad #5000111). [^3H]Uridine (PerkinElmer Life Sciences #NET367001MC) was prepared in serum replacement medium to a final emission of 3.65 μCi ml^−1 and added to cells for 10 min. Following 10 min, the cells were washed with four quick changes of 1 mM unlabeled uridine prepared in ice-cold transport buffer (20 mM Tris-HCl, pH 7.4, 130 mM NaCl, 3 mM K2HPO4, 1 mM MgCl2, 5 mM glucose, 2 mM CaCl2). The samples were then harvested in 100 μl of 10% SDS. 900 μl of Optiphase Supermix (PerkinElmer Life Sciences #1200-439) was added to each sample, and the cpm were measured using a 1450 MicroBeta JET for liquid scintillation (PerkinElmer Life Sciences/Wallac)."}, "[3]": {"system": "ARN8 cells", "assay": "SRB assay in ARN8 cells with nucleotide supplementation", "format": "cell-based, human", "details": "72 h, 100 μM uridine, 1 mM DHO or 1 mM OA", "method": "Cells were seeded in a 96-well plate at a density of 500 cells/well (ARN8) in a volume of 100 μl of fully supplemented growth medium and incubated as described above for 24 h. SKNSH p53 WT pCMV neo cells were seeded at 7500 cells/well in 100 μl of fully supplemented growth medium and incubated as described above for 24 h. SKNSH ddp53 cells were seeded at a density of 6000 cells/well in 100 μl of fully supplemented growth medium and incubated as described above for 24 h. Cells were checked for adherence and treated with tenovins in DMSO supplemented with 100 μM uridine, 1 mM DHO, or 1 mM OA. The final percentage of DMSO per well was <0.2%. Cells were incubated for 72 h with compounds. Following incubation, medium was removed from the cells and replaced by 150 μl of 1× sterile PBS and 50 μl of 40% (w/v) TCA (Sigma–Aldrich #T9159) in distilled H2O and incubated at 4 °C for 1 h to fix the cells. The plate was then washed with three changes of water with all liquid allowed to drain from the plate. 50 μl of 0.4% (w/v) sulforhodamine B (Sigma–Aldrich #230162) with 1% (v/v) acetic acid (Sigma–Aldrich #320099) in H2O was added to each well and incubated for 30 min. Excess dye was washed out with three changes of 1% (v/v) acetic acid in H2O. The remaining dye was solubilized in 100 μl of 10 mM unbuffered Tris-base (Sigma–Aldrich #93362) per well, and absorbance was read at 490 nm on a spectrophotometer."}, "[4]": {"target": "T1, recombinant human DHODH (Homo sapiens, UniProt Q02127)", "T1 construct": "made in house", "T1 sequence (Q02127 whole entry)": "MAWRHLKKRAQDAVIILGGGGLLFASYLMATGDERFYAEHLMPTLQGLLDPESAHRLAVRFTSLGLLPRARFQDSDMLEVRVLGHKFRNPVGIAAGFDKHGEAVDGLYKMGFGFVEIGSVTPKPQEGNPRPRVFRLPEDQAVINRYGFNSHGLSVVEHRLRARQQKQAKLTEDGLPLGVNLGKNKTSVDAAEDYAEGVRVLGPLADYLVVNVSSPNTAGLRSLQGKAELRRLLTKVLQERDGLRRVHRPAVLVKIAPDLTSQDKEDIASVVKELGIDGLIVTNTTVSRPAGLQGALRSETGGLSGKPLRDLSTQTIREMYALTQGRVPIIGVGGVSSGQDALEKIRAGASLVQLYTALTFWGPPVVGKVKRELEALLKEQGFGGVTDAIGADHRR", "assay": "DHODH enzymatic assay (kinetic, DCIP reduction)", "format": "biochemical", "method": "Enzyme assays were performed with 6 nM recombinant human DHODH prepared as described ([36]). The reaction mixture for these kinetic assays consisted of 1 mM DHO, 100 μM 2,3-dimethoxy-5-methyl-p-benzoquinone (Sigma–Aldrich #D9150), and 100 μM 2,6-dichlorophenolindophenol sodium salt (DCIP; Sigma–Aldrich #D1878) in enzyme buffer (50 mM Tris-HCl pH 8.0, 0.1% Triton X-100, 150 mM KCl). A stock solution of 20 mM DCIP was prepared in enzyme buffer and filtered through filter paper (20−25-μm pore size) just before use. Loss in absorbance by DCIP was measured at 595 nm at room temperature in a stepped time course (8 × 2 min, 8 × 3 min, 6 × 5 min). The observed decrease in absorbance over time was linear between 8 and 26 min. Therefore, for each concentration of inhibitor tested, a value for DHODH's Vmax was estimated by linear regression within this time frame. The IC50 is defined as the concentration of inhibitor that gives Vmax([I]) = Vmax(DMSO)/2."}, "[5]": {"system": "p53 transcriptional activity in ARN8 cells", "assay": "p53 transcriptional activation (CPRG) cell reporter assay", "format": "cell-based, human", "details": "18 h, 100 μM uridine, 1 mM DHO or 1 mM OA", "method": "ARN8 cells were seeded in a 96-well plate at a density of 20,000 cells/well in a volume of 100 μl of fully supplemented growth medium. […] Subsequently, 50 μl of 1× reporter lysis buffer (Promega #E4030) was added to each well, and the plates were stored at –20 °C for at least 2 h."}, "[6]": {"system": "HCT116 p53 WT and p53 KO cells", "assay": "IncuCyte cell confluence measurements", "format": "cell-based, human", "details": "HCT116 p53 WT or KO, 5 μM, confluence over 72 h", "method": "ARN8 or HCT116 p53 WT or KO cells were seeded in a 96-well plate at a density of 4000 cells/well in a volume of 100 μl. […] The medium of the assigned wells was replaced with 100 μl of fresh medium containing a 5 μM concentration of the corresponding Tenovins or DMSO control and placed in an IncuCyte S3 system located inside a CO2 incubator."}, "[7]": {"system": "p53, hdm2 and p21 in ARN8 cells", "assay": "Western blotting of p53 and p53 targets in ARN8 cells", "format": "cell-based, human", "details": "5 μM; for Treatment time at which p53 protein levels increased: blotted at 2, 4, 6 or 8 h; for Effect of OA and uridine on p53 protein and downstream signaling (hdm2, p21): 24 h, 100 μM uridine or 1 mM OA", "method": "150,000 ARN8, HCT116 p53 WT, or HCT116 p53 KO cells were seeded on 6-well plates in 2 ml of fully supplemented medium as described above. […] A protein assay was conducted using the Bio-Rad DC protein analysis kit (Bio-Rad #5000111), and the protein levels were normalized between samples. […] The transfer was conducted using the Trans-Blot Turbo preset program for standard semidry transfer (30 min). All membranes were blocked in 5% milk (w/v) in PBS-T containing 0.1% Tween 20 (v/v) (Sigma–Aldrich P9416). All antibodies were made up in 5% milk (w/v) in PBS-T. All antibody incubations were either overnight at 4 °C or at room temperature for 1 h. […] All secondary antibodies were polyclonal rabbit anti-mouse antibodies conjugated to horseradish peroxidase (DAKO, Glostrup, Denmark #P0260) and diluted at concentrations of 1:2000 (v/v). […] All blots were normalized to their respective vehicle control and quantified using ImageLab where quantification was required (Bio-Rad version 5.2.1 build 11)."}, "[8]": {"target": "T1, recombinant human DHODH", "assay": "Thermal shift assay using intrinsic FMN fluorescence", "format": "binding", "details": "200 μM compound, 5 μM DHODH", "method": "5 μM recombinant human DHODH prepared as described ([36]) was used in this assay. The assay relied upon the intrinsic fluorescence of the embedded flavin mononucleotide (FMN) within the DHODH as a proxy for unfolding of DHODH across a temperature range, much in the same manner as the thermal shift assay using SYPRO Orange ([37]). A PCR machine with a filter set with an excitation range of 475–500 nm and an emission range of 520–590 nm was used for this experiment. 5 μM DHODH was prepared with 200 μM compound with a final concentration of 0.5% DMSO in each sample in buffer consisting of 50 mM HEPES and 150 mM NaCl. The final assay volume was 10 μl. The samples were heated across a temperature range with the fluorescence emission from FMN monitored at each temperature."}, "[9]": {"details": "6 nM recombinant human DHODH, average of three independent repeats, read-out: DHODH inhibition (enzyme assay), IC50"}}, "note": "Read-outs that look alike come from different tables or passages of the source.", "data": [{"molecule": "CC(=O)Nc1ccc(NC(=S)NC(=O)c2ccc(C(C)(C)C)cc2)cc1", "note": "[Tenovin 1]", "values": [{"measurement": "Effect on cell cycle distribution / cell death", "setting": "[1]", "value": "increase in cell death"}, {"measurement": "Effect of uridine or OA on the compound's cell cycle effect", "setting": "[1]", "value": "effect on the cell cycle largely prevented"}, {"measurement": "Inhibition of uridine uptake after 15 min", "setting": "[2]", "value": "unable to alter uridine uptake"}, {"measurement": "Effect of supplementation on tumor cell growth inhibition (SRB)", "setting": "[3]", "value": "reduced upon supplementation with uridine or OA"}, {"measurement": "IC50", "setting": "[4]; [9]", "value": 113, "unit": "nM"}, {"measurement": "IC50", "setting": "[4]; enzyme assay, read-out: DHODH IC50", "value": "~113", "unit": "nM"}]}, {"molecule": "CN(C)CCCCC(=O)Nc1ccc(NC(=S)NC(=O)c2ccc(C(C)(C)C)cc2)cc1", "note": "[Tenovin 6]", "values": [{"measurement": "Inhibition of uridine uptake after 15 min", "setting": "[2]", "value": "able to inhibit uridine uptake"}, {"measurement": "Effect of supplementation on tumor cell growth inhibition (SRB)", "setting": "[3]", "value": "no rescue of cell viability"}, {"measurement": "Effect of supplementation on induction of p53 transcriptional activity", "setting": "[5]", "value": "partially ablated"}, {"measurement": "Effect on cell growth in p53 KO versus p53 WT cells", "setting": "[6]", "value": "effects on cell growth ablated in the p53 KO cells"}, {"measurement": "IC50", "setting": "[4]; [9]", "value": 500, "unit": "nM"}, {"measurement": "Treatment time at which p53 protein levels increased", "setting": "[7]", "value": 2, "unit": "h"}, {"measurement": "Effect of OA and uridine on p53 protein and downstream signaling (hdm2, p21)", "setting": "[7]", "value": "ablation of p53 downstream signaling"}]}, {"molecule": "CN(C)CCCCC(=O)Nc1ccc(NC(=O)NC(=O)c2ccc(C(C)(C)C)cc2)cc1", "note": "[Tenovin 33]", "values": [{"measurement": "Effect on cell cycle distribution / cell death", "setting": "[1]", "value": "increase in the percentage of cells in S-phase"}, {"measurement": "Effect of uridine or OA on the compound's cell cycle effect", "setting": "[1]", "value": "effect on the cell cycle largely prevented"}, {"measurement": "Inhibition of uridine uptake after 15 min", "setting": "[2]", "value": "able to inhibit uridine uptake"}, {"measurement": "Effect of supplementation on tumor cell growth inhibition (SRB)", "setting": "[3]", "value": "reduced upon supplementation with uridine or OA"}, {"measurement": "Effect of supplementation on induction of p53 transcriptional activity", "setting": "[5]", "value": "completely ablated"}, {"measurement": "IC50", "setting": "[4]; [9]", "value": "> 20000", "unit": "nM"}, {"measurement": "Inhibition of DHODH enzyme activity (in words)", "setting": "[4]; biochemical assay", "value": "incapable of inhibiting DHODH enzyme activity"}, {"measurement": "Treatment time at which p53 protein levels increased", "setting": "[7]", "value": 8, "unit": "h"}, {"measurement": "Effect of OA and uridine on p53 protein and downstream signaling (hdm2, p21)", "setting": "[7]", "value": "ablation of p53 downstream signaling"}, {"measurement": "Stabilization of DHODH in thermal shift assay", "setting": "[8]", "value": "nor was it able to stabilize DHODH in a thermal shift assay"}]}, {"molecule": "Cc1c(-c2ccc(-c3ccccc3F)cc2)nc2ccc(F)cc2c1C(=O)O", "note": "[brequinar, reference compound]", "values": [{"measurement": "Effect on cell cycle distribution / cell death", "setting": "[1]", "value": "increase in the percentage of cells in S-phase"}]}]}
